Data from PubChem BioAssay AID330 (DTP/NCI, 2004).
Values joined by “and” are separate entries in the source; they are usually repeats but may differ in a detail not shown here. Equal values may be shown once. Inconclusive results and toxic doses are left out. Rule for the calls: active = survival T/C of 150% or more; inactive = T/C below 125% in these data.

Tested on: P388 leukemia ip, CD2F1 mice, survival T/C
Experiment: NCI In Vivo Anticancer Drug Screen. Data for tumor model P388 Leukemia (intraperitoneal) in CD2F1 (CDF1) mice
Conditions: endpoint: median survival time, higher = longer survival
How it was run: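 Mice carrying the transplanted tumor received test compound or vehicle. Survival was recorded in each group, and the value is the treated-group measurement divided by that of the vehicle-treated control group.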

[1] = dose: 15.0 mg/kg/injection, schedule: Q01DX005 (ip), vehicle: Klucel (hydroxypropylcellulose) (HPC)
[2] = dose: 30.0 mg/kg/injection, schedule: Q01DX005 (ip), vehicle: Klucel (hydroxypropylcellulose) (HPC)
[3] = dose: 240.0 mg/kg/injection, schedule: Q01DX005 (ip), vehicle: Klucel (hydroxypropylcellulose) (HPC)
[4] = dose: 200.0 mg/kg/injection, schedule: Q04DX002 (ip), vehicle: saline with Tween-80
[5] = dose: 400.0 mg/kg/injection, schedule: Q04DX002 (ip), vehicle: saline with Tween-80
[6] = dose: 60.0 mg/kg/injection, schedule: Q01DX005 (ip), vehicle: saline with Tween-80
[7] = dose: 120.0 mg/kg/injection, schedule: Q01DX005 (ip), vehicle: saline with Tween-80
[8] = dose: 240.0 mg/kg/injection, schedule: Q01DX005 (ip), vehicle: saline with Tween-80
[9] = dose: 100.0 mg/kg/injection, schedule: Q01DX001 (ip), vehicle: Klucel (hydroxypropylcellulose) (HPC)
[10] = dose: 50.0 mg/kg/injection, schedule: Q01DX005 (ip), vehicle: saline
[11] = dose: 100.0 mg/kg/injection, schedule: Q01DX005 (ip), vehicle: saline
[12] = dose: 200.0 mg/kg/injection, schedule: Q01DX005 (ip), vehicle: saline

Measured: T/C

COC(=O)C(S)(NC(C)=O)C(C)C (centres undefined)
inactive: dose: 50.0 mg/kg/injection, schedule: Q01DX009 (ip), vehicle: saline 102 % of control | dose: 100.0 mg/kg/injection, schedule: Q01DX009 (ip), vehicle: saline 98 % of control | dose: 200.0 mg/kg/injection, schedule: Q01DX009 (ip), vehicle: saline 104 % of control

Cc1nnc2c3nccn3ccn12
inactive: dose: 12.5 mg/kg/injection, schedule: Q01DX001 (ip), vehicle: saline with Tween-80 106 % of control | dose: 25.0 mg/kg/injection, schedule: Q01DX001 (ip), vehicle: saline with Tween-80 101 % of control | dose: 50.0 mg/kg/injection, schedule: Q01DX001 (ip), vehicle: saline with Tween-80 106 % of control

O=C1c2ccccc2C(=O)N1CCCN1CCOCCOCCN(CCCN2C(=O)c3ccccc3C2=O)CCOCC1
inactive: dose: 50.0 mg/kg/injection, schedule: Q01DX005 (ip), vehicle: saline + Tween-80 + alcohol 105 % of control | dose: 100.0 mg/kg/injection, schedule: Q01DX005 (ip), vehicle: saline + Tween-80 + alcohol 97 % of control

CCCCCCCCC(O)CCC (centres undefined)
inactive: dose: 100.0 mg/kg/injection, schedule: Q04DX003 (ip), vehicle: saline 100 % of control | dose: 200.0 mg/kg/injection, schedule: Q04DX003 (ip), vehicle: saline 100 % of control | dose: 400.0 mg/kg/injection, schedule: Q04DX003 (ip), vehicle: saline 100 % of control

O=C(c1ccccc1)C(NCc1ccccc1)(Nc1ccccn1)c1ccccc1 (centres undefined)
inactive: [1] 102 % of control | [2] 100 % of control | dose: 60.0 mg/kg/injection, schedule: Q01DX005 (ip), vehicle: Klucel (hydroxypropylcellulose) (HPC) 100 % of control and 88 % of control | [3] 89 % of control

c1ccc2c(c1)CC/C2=N\OCC1CO1 (centres undefined)
inactive: dose: 100.0 mg/kg/injection, schedule: Q04DX002 (ip), vehicle: saline with Tween-80 102 % of control | [4] 104 % of control | [5] 106 % of control

CSC(=N/O)/C(=N\O)SC
inactive: dose: 12.5 mg/kg/injection, schedule: Q01DX009 (ip), vehicle: Klucel (hydroxypropylcellulose) (HPC) 107 % of control | dose: 25.0 mg/kg/injection, schedule: Q01DX009 (ip), vehicle: Klucel (hydroxypropylcellulose) (HPC) 99 % of control | dose: 50.0 mg/kg/injection, schedule: Q01DX009 (ip), vehicle: Klucel (hydroxypropylcellulose) (HPC) 100 % of control and 102 % of control | dose: 200.0 mg/kg/injection, schedule: Q01DX009 (ip), vehicle: Klucel (hydroxypropylcellulose) (HPC) 89 % of control

CC1(C)OCC(C2OC3OC(C)(C)OC3C2N2CCC(O)O2)O1 (centres undefined)
inactive: dose: 97.75 mg/kg/injection, schedule: Q04DX002 (ip), vehicle: saline 103 % of control | dose: 195.5 mg/kg/injection, schedule: Q04DX002 (ip), vehicle: saline 109 % of control | dose: 391.0 mg/kg/injection, schedule: Q04DX002 (ip), vehicle: saline 105 % of control

CSCC[C@@H]1C(=O)N(C)[C@H](C(C)(C)C)N1C(=O)c1ccccc1
inactive: [6] 100 % of control | [7] 100 % of control | [8] 97 % of control

O=C1C2=C(Nc3cc([N+](=O)[O-])ccc3N2)OC1c1ccc2c(c1)OCO2 (centres undefined)
inactive: dose: 1.87 mg/kg/injection, schedule: Q01DX005 (ip), vehicle: Klucel (hydroxypropylcellulose) (HPC) 89 % of control | dose: 3.75 mg/kg/injection, schedule: Q01DX005 (ip), vehicle: Klucel (hydroxypropylcellulose) (HPC) 90 % of control | dose: 7.5 mg/kg/injection, schedule: Q01DX005 (ip), vehicle: Klucel (hydroxypropylcellulose) (HPC) 90 % of control | [1] 88 % of control | [2] 87 % of control | dose: 120.0 mg/kg/injection, schedule: Q01DX005 (ip), vehicle: Klucel (hydroxypropylcellulose) (HPC) 89 % of control and 90 % of control | [3] 93 % of control

c1ccc2c(c1)CCc1c(-c3ccncc3)n[nH]c1-2
inactive: dose: 12.5 mg/kg/injection, schedule: Q01DX009 (ip), vehicle: other 108 % of control | dose: 25.0 mg/kg/injection, schedule: Q01DX009 (ip), vehicle: other 123 % of control | dose: 50.0 mg/kg/injection, schedule: Q01DX009 (ip), vehicle: other 106 % of control | dose: 100.0 mg/kg/injection, schedule: Q01DX009 (ip), vehicle: other 104 % of control | dose: 200.0 mg/kg/injection, schedule: Q01DX009 (ip), vehicle: other 100 % of control

CC(=O)O[C@@H]1[C@H](C)[C@@H]2CC(=O)O[C@@H]3[C@H](OC(=O)C=C(C)C)[C@H]4C(C)=CC(=O)[C@@H](OC(C)=O)[C@]4(C)[C@H]4[C@@]1(O)OC[C@@]342
inactive: dose: 1.25 mg/kg/injection, schedule: Q01DX009 (ip), vehicle: Klucel (hydroxypropylcellulose) (HPC) 104 % of control | dose: 2.5 mg/kg/injection, schedule: Q01DX009 (ip), vehicle: Klucel (hydroxypropylcellulose) (HPC) 107 % of control | dose: 5.0 mg/kg/injection, schedule: Q01DX009 (ip), vehicle: Klucel (hydroxypropylcellulose) (HPC) 107 % of control | dose: 10.0 mg/kg/injection, schedule: Q01DX009 (ip), vehicle: Klucel (hydroxypropylcellulose) (HPC) 107 % of control

CN(C)c1ccc(C(=O)C2CCCC(C)(C)C2)cc1 (centres undefined)
inactive: dose: 100.0 mg/kg/injection, schedule: Q04DX003 (ip), vehicle: Klucel (hydroxypropylcellulose) (HPC) 98 % of control | dose: 200.0 mg/kg/injection, schedule: Q04DX003 (ip), vehicle: Klucel (hydroxypropylcellulose) (HPC) 99 % of control | dose: 400.0 mg/kg/injection, schedule: Q04DX003 (ip), vehicle: Klucel (hydroxypropylcellulose) (HPC) 91 % of control

Nc1cc(-c2ccccc2)cn1-c1nnc(-c2ccc(Br)cc2)s1
inactive: [9] 101 % of control | dose: 200.0 mg/kg/injection, schedule: Q01DX001 (ip), vehicle: Klucel (hydroxypropylcellulose) (HPC) 100 % of control | dose: 400.0 mg/kg/injection, schedule: Q01DX001 (ip), vehicle: Klucel (hydroxypropylcellulose) (HPC) 99 % of control

CNC(=O)OCc1c(COC(=O)NC)c(-c2ccc(F)cc2)n(C)c1C
inactive: dose: 50.0 mg/kg/injection, schedule: Q01DX009 (ip), vehicle: distilled water + Tween-80 91 % of control

CCN(CC)CCCC(=O)O
inactive: [10] 100 % of control | [11] 100 % of control | [12] 100 % of control

C[n+]1cccc(C(=O)O)c1
inactive: dose: 25.0 mg/kg/injection, schedule: Q01DX005 (ip), vehicle: saline 100 % of control | [10] 101 % of control | [11] 99 % of control | [12] 91 % of control

COC(=O)Nc1nc2ccc(OCCO)cc2[nH]1
inactive: dose: 25.0 mg/kg/injection, schedule: Q01DX005 (ip), vehicle: DMSO 104 % of control | dose: 50.0 mg/kg/injection, schedule: Q01DX005 (ip), vehicle: DMSO 100 % of control | dose: 100.0 mg/kg/injection, schedule: Q01DX005 (ip), vehicle: DMSO 104 % of control | dose: 200.0 mg/kg/injection, schedule: Q01DX005 (ip), vehicle: DMSO 103 % of control | dose: 400.0 mg/kg/injection, schedule: Q01DX005 (ip), vehicle: DMSO 101 % of control

CC1CC(C)CN(C)C1 (centres undefined)
inactive: [10] 100 % of control | [11] 100 % of control

CC1=C(C(=O)CC(=O)Nc2ccc(Cl)c(Cl)c2)Sc2ccccc2N1
inactive: [6] 96 % of control | [7] 92 % of control | [8] 99 % of control

N#CC1=CC2C3C(=O)N(c4ccccc4)C(=O)C3C1N(Cc1ccccc1)C2c1ccccc1 (centres undefined)
inactive: dose: 12.5 mg/kg/injection, schedule: Q01DX005 (ip), vehicle: saline with Tween-80 95 % of control | dose: 12.5 mg/kg/injection, schedule: Q04DX002 (ip), vehicle: saline with Tween-80 102 % of control | dose: 25.0 mg/kg/injection, schedule: Q01DX005 (ip), vehicle: saline with Tween-80 91 % of control | dose: 25.0 mg/kg/injection, schedule: Q04DX002 (ip), vehicle: saline with Tween-80 94 % of control | dose: 50.0 mg/kg/injection, schedule: Q01DX005 (ip), vehicle: saline with Tween-80 89 % of control | dose: 50.0 mg/kg/injection, schedule: Q04DX002 (ip), vehicle: saline with Tween-80 94 % of control | dose: 200.0 mg/kg/injection, schedule: Q01DX005 (ip), vehicle: saline with Tween-80 87 % of control | [4] 87 % of control | [5] 89 % of control

Nn1c(N/N=C\c2ccccc2)nnc1N/N=C/c1ccccc1
inactive: dose: 50.0 mg/kg/injection, schedule: Q01DX001 (ip), vehicle: Klucel (hydroxypropylcellulose) (HPC) 113 % of control | [9] 105 % of control
